Values of other authors as cited in patent publication US10525009B2, “Formulations of 6-mercaptopurine” (Hadasit Medical Research Services and Development Ltd., priority 2004, dated 2020).

- fraction of an oral dose absorbed: Approximately 50%
SMILES: Sc1ncnc2nc[nH]c12 [6-MP, 6-mercaptopurine]
